# Data from PMC6449286, “Influence of Multidrug Resistance-Associated Proteins on the Excretion of the ABCC1 Imaging Probe 6-Bromo-7-[^11C]Methylpurine in Mice” (Molecular Imaging and Biology, 2018).
# Marks after values point to notes of the source that are not given here.
# Columns and labels:
# ABCC4 [1] = test system: ABCC4; parameters: method as in PMID 12695538, PMID 10760098; settings: in vitro ref 20, 21; read-out: IC50 for inhibition of substrate transport by ABCC4; cited from earlier work
# [2] = MK571 concentrations in plasma and kidneys (HPLC); format: in vivo, mice; settings: mouse, intraperitoneal, 300 mg/kg
# Experimental: Assessment of Glutathione Conjugation […]
# euthanized. Brain, liver, kidneys, urine and bile were collected. Blood was centrifuged to obtain […]
# fluorescence detector (G1321 FLD). […]
# obtain a clear supernatant. The resulting supernatants were injected into the HPLC column.
# (5 µm, 100-4.6 mm) preceded by a Chromolith Performance RP-18 pre-column (5 µm, 10-4.6 mm), which was isocratically eluted with acetonitrile/methanol/0.1% aqueous acetic acid (30/20/50, v/v/v) at a flow rate of 2 ml/min. For fluorescence detection, an excitation wavelength of 250 nm and an emission wavelength of 410 nm were used. MK571 eluted with a retention time of 10.1 min. Linear calibration curves were generated by spiking drug-free mouse plasma […]
# average correlation coefficient: > 0.999).
# ABCC2 = test system: ABCC2; parameters: method as in PMID 12695538, PMID 10760098; settings: in vitro ref 20, 21; read-out: IC50 for inhibition of substrate transport by ABCC2; cited from earlier work
# [3] = parameters: method as in PMID 1976057; settings: rats ref 24; cited from earlier work
# [4] = Assessment of glutathione conjugation by radio-TLC in mouse tissues and fluids; settings: for Percentage of S-(6-(7-[^11C]methylpurinyl))glutathione in bile / Percentage of S-(6-(7-[^11C]methylpurinyl))glutathione in brain / Percentage of S-(6-(7-[^11C]methylpurinyl))glutathione in kidney / Percentage of S-(6-(7-[^11C]methylpurinyl))glutathione in liver / Percentage of S-(6-(7-[^11C]methylpurinyl))glutathione in urine: 15 min after i.v. injection; for Percentage of S-(6-(7-[^11C]methylpurinyl))glutathione in plasma: 15 min after i.v. injection of 6-bromo-7-[^11C]methylpurine, n=3
# Experimental: Assessment of Glutathione Conjugation
# 6-Bromo-7-[11C]methylpurine (26 ± 8 MBq in a volume of 0.1 ml, 0.15 ± 0.06 nmol) was administered i.v. to wild-type and Abcc1(-/-) mice (n = 3 per group) under isoflurane anesthesia.
# After a period of 15 min, blood was collected from the retro-bulbar plexus and animals were euthanized. Brain, liver, kidneys, urine and bile were collected. Blood was centrifuged to obtain plasma and proteins were precipitated by the addition of acetonitrile (1 µl per µl plasma). Liver, kidneys and brain were homogenized using an Ultra Turrax T10 (IKA Laboratory Equipment, Staufen, Germany) and proteins were precipitated with acetonitrile (1 ml per liver, 0.2 ml per kidneys/brain). Urine and bile were diluted with acetonitrile (1 µl per µl urine and bile). All solutions were vortexed and then centrifuged (12,000 x g, 1 min, 21°C). Each supernatant (plasma, brain, liver, kidney, urine, bile, 5 µl each) and diluted radiotracer solution as reference were spotted on silica gel 60F 254 nm TLC plates (10 x 20 cm; Merck, Darmstadt, Germany) and plates were developed in water/acetonitrile/acetic acid (92/8/1, v/v/v). Detection was performed by placing the TLC plates on multisensitive phosphor screens (Perkin-Elmer). […]
# Abcc1 [5] = molecular target: T1, Abcc1 (Mus musculus, UniProt O35379); parameters: method as in PMID 23596979, PMID 18985052; settings: cited from earlier work
# T1 construct: from tissue; host or cells: living C57BL/6J mice (wild-type versus Abcc1 knockout), obtained from the University of Oslo
# Abcc1 [6] = molecular target: T1, Abcc1; test: 6-bromo-7-[^11C]methylpurine PET in Abcc1 knockout mice; format: in vivo
# Experimental: (§1) Groups of wild-type, Abcc4^(−/−), Abcc1^(−/−), and Abcc1^(+/−) mice underwent a baseline PET scan with 6-bromo-7-[^11C]methylpurine at 30 min after i.p. injection of vehicle solution (PBS). […] In addition, groups of wild-type and Abcc1^(−/−) mice were used to determine the percentage of unchanged 6-bromo-7-[^11C]methylpurine in different tissues and fluids.
# (§2) During all experimental procedures, animals were kept under isoflurane anesthesia. PET imaging was conducted on a microPET Focus220 scanner (Siemens Medical Solutions, Knoxville, TN, USA). […] Subsequently, 6-bromo-7-[^11C]methylpurine (29 ± 9 MBq in a volume of 0.1 ml, 0.17 ± 0.11 nmol) was administered as an i.v. bolus via the lateral tail vein, and a 90-min dynamic PET scan (energy window: 250–750 keV; timing window: 6 ns) was initiated at the start of radiotracer injection. […] Blood was centrifuged to obtain plasma and aliquots of blood and plasma were counted for radioactivity in a gamma counter (Wizard 1470; Perkin-Elmer, Waltham, MA, USA).
# (§3) The PET data were sorted into 25 frames with a duration increasing from 5 s to 20 min. Fourier re-binning of the three-dimensional sinograms followed by a two-dimensional filtered back-projection with a ramp filter resulting in a voxel size of 0.4 × 0.4 × 0.796 mm^3 was used to reconstruct the PET data. Using AMIDE software, brain, right lung, left kidney, urinary bladder, liver, duodenum, intestine, and gall bladder were manually outlined on the PET images to derive concentration-time curves expressed in units of standardized uptake value (SUV = (radioactivity per g/injected radioactivity) × body weight). In addition, the left ventricle of the heart was outlined to obtain an image-derived blood curve. For all organs, the area under the concentration-time curve (AUC) from 0 to 90 min after radiotracer injection was calculated using Prism 7 software (GraphPad Software, La Jolla, CA, USA) and organ-to-blood AUC ratios were calculated. From the log-transformed concentration-time curves in blood, brain, lung, kidney, and liver, the elimination rate constant (kelimination) of radioactivity was determined by linear regression analysis from 17.5 to 80 min after radiotracer injection. A graphical analysis method (integration plot) was used to estimate the rate constant for transfer of radioactivity from blood into different organs (brain, kidney, and liver, kuptake, ml/min/g tissue) using data measured from 0.3 to 3.5 min after radiotracer injection, as described in detail before. Moreover, the rate constant for tubular secretion of radioactivity (kurine, min^−1) was determined from 12.5 to 65 min after radiotracer injection using integration plot analysis.
# Abcc4 [7] = test: 6-bromo-7-[^11C]methylpurine PET in Abcc4^(−/−) mice; format: in vivo; settings: Abcc4^(−/−) vs wild-type mice
# Experimental: as §1, §2
# The PET data were sorted into 25 frames with a duration increasing from 5 s to 20 min. […] Using AMIDE software, brain, right lung, left kidney, urinary bladder, liver, duodenum, intestine, and gall bladder were manually outlined on the PET images to derive concentration-time curves expressed in units of standardized uptake value (SUV = (radioactivity per g/injected radioactivity) × body weight). […] From the log-transformed concentration-time curves in blood, brain, lung, kidney, and liver, the elimination rate constant (kelimination) of radioactivity was determined by linear regression analysis from 17.5 to 80 min after radiotracer injection. A graphical analysis method (integration plot) was used to estimate the rate constant for transfer of radioactivity from blood into different organs (brain, kidney, and liver, kuptake, ml/min/g tissue) using data measured from 0.3 to 3.5 min after radiotracer injection, as described in detail before. […]
# [8] = Baseline 6-bromo-7-[^11C]methylpurine PET in vehicle-treated wild-type mice; format: in vivo
# Experimental: as §1, §2, §3
# [9] = Abcc1^(−/−) relative to wild-type mice ref 12, 13
# T1 sequence (O35379 whole entry): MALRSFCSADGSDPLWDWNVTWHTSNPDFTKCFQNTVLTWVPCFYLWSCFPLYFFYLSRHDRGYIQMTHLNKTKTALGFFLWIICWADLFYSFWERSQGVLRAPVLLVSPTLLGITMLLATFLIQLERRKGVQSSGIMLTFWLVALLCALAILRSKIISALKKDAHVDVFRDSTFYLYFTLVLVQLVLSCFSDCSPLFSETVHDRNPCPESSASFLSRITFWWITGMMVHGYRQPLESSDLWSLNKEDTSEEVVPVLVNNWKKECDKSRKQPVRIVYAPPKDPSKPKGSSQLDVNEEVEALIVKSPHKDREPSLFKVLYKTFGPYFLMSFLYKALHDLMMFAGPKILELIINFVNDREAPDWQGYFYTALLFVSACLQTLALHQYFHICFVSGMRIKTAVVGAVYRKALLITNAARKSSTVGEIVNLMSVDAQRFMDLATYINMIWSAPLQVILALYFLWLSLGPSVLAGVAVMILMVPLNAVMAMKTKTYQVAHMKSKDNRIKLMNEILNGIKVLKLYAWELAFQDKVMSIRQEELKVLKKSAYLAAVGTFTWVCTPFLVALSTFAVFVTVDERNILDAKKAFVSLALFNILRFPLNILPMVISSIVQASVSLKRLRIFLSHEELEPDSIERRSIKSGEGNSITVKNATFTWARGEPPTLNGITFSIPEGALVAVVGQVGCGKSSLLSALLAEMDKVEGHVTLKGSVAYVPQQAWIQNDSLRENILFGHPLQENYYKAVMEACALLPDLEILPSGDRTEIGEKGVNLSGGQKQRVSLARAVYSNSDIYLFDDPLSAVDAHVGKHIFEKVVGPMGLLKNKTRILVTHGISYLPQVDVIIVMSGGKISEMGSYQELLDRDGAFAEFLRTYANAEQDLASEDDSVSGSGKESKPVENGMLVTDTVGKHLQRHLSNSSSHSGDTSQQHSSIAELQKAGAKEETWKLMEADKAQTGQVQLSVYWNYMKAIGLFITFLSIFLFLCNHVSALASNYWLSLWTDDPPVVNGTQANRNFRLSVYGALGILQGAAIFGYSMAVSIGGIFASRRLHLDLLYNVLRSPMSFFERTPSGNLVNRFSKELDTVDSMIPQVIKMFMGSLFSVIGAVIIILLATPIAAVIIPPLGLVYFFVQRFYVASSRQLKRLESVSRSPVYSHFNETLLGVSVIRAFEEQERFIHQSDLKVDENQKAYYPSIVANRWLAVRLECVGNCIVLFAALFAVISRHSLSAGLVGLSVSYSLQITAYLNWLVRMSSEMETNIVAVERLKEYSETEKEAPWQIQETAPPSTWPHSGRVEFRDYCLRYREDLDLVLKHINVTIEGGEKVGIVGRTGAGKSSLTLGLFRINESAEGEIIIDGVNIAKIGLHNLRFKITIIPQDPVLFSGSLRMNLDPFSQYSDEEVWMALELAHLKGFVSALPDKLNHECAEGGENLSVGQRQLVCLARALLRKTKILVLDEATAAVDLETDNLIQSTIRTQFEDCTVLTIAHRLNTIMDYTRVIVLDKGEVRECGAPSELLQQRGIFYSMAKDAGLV
structure (smiles),measurement,setting,value
CN(C)C(=O)CCSC(SCCC(=O)O)c1cccc(/C=C/c2ccc3ccc(Cl)cc3n2)c1 (stereo not drawn) [MK571],IC50,ABCC4 [1],10 µM
same,concentration at 120 min,"[2]; C57BL/6J, kidney, Kidney unbound concentration of MK571, mice, from rat tissue unbound fraction of (R)-enantiomer",98 µM
same,concentration at 120 min,"[2]; C57BL/6J, kidney, Kidney unbound concentration of MK571, mice, from rat tissue unbound fraction of (S)-enantiomer",180 µM
same,concentration at 120 min,"[2]; C57BL/6J, kidney, Mean total MK571 concentration in the kidneys, wild-type mice, as restated in discussion",544 µM
same,concentration at 120 min,"[2]; kidney, MK571 concentration in kidneys, wild-type mice, approximately 120 min after 300 mg/kg i.p.",544 ± 58 µM
same,concentration at 120 min,"[2]; plasma, MK571 concentration in plasma, wild-type mice, approximately 120 min after 300 mg/kg i.p.",251 ± 58 µM
same,IC50,ABCC2,4 µM
"CN(C)C(=O)CCS[C@H](SCCC(=O)O)c1cccc(/C=C/c2ccc3ccc(Cl)cc3n2)c1 (single isomer, unassigned) [(R)-enantiomer of MK571]",Apparent tissue unbound fraction,[3],0.18
[11CH3]n1cnc2ncnc(Br)c21 [6-bromo-7-[^11C]methylpurine],Unchanged 6-bromo-7-[^11C]methylpurine in tissues and fluids,"[4]; mouse, in vivo, 15 min",In none of the investigated tissues and fluids unchanged 6-bromo-7-[^11C]methylpurine could be detected
same,"Reduction in kelimination of radioactivity, brain",Abcc1 [5]; [9],9.3 fold
same,"Reduction in kelimination of radioactivity, lungs",Abcc1 [5]; [9],17.2 fold
same,Conversion into glutathione conjugate in brain and lungs,"Abcc1 [5]; mice, within 15 min after i.v. injection ref 12, 13",almost quantitatively converted into its glutathione conjugate
same,Plasma-to-blood ratio of radioactivity,"Abcc1 [6]; Abcc1^(−/−) mice, venous blood at end of PET scan",0.60 ± 0.04
same,Decrease in kurine,Abcc1 [6]; Abcc1^(−/−) vs wild-type mice,3.4 fold
same,Decrease in plasma-to-blood ratio of radioactivity,Abcc1 [6]; Abcc1^(−/−) vs wild-type mice,2.4 fold
same,Increase in blood AUC,Abcc1 [6]; Abcc1^(−/−) vs wild-type mice,3.0 fold
same,"Increase in kuptake, liver",Abcc1 [6]; Abcc1^(−/−) vs wild-type mice,1.6 fold
same,"Reduction in kelimination, blood",Abcc1 [6]; Abcc1^(−/−) vs wild-type mice,3.6 fold
same,"Reduction in kelimination, lungs",Abcc1 [6]; Abcc1^(−/−) vs wild-type mice,5.7 fold
same,"Reduction in kelimination,brain",Abcc1 [6]; Abcc1^(−/−) vs wild-type mice,9.4 fold
same,"Reduction in kelimination,brain",Abcc1 [6]; heterozygous Abcc1^(+/−) vs wild-type mice,1.3 fold
same,"Decrease in kelimination, brain",Abcc4 [7],1.5 fold
same,"Decrease in kelimination, kidneys",Abcc4 [7],1.4 fold
same,Decrease in kurine,Abcc4 [7],2.3 fold
same,"kelimination,brain",[8]; vehicle-treated wild-type mice,1.37 ± 0.27 h⁻¹
same,"kuptake,brain",[8]; vehicle-treated wild-type mice,0.113 ± 0.028 ml/min/g brain
same,"Extraction ratio, liver","[8]; vehicle-treated wild-type mice, assuming hepatic blood flow 1.0 ml/min/g tissue",0.21
same,"Extraction ratio, kidneys","[8]; vehicle-treated wild-type mice, assuming renal blood flow 4.1 ml/min/g tissue",0.18
same,Plasma-to-blood ratio of radioactivity,"[8]; wild-type mice, venous blood at end of PET scan",1.46 ± 0.14
"CN(C)C(=O)CCS[C@@H](SCCC(=O)O)c1cccc(/C=C/c2ccc3ccc(Cl)cc3n2)c1 (single isomer, unassigned) [(S)-enantiomer of MK571]",Apparent tissue unbound fraction,[3],0.33
Cn1cnc2ncnc(SC[C@H](NC(=O)CC[C@H](N)C(=O)O)C(=O)NCC(=O)O)c21 [S-(6-(7-[^11C]methylpurinyl))glutathione],Percentage of S-(6-(7-[^11C]methylpurinyl))glutathione in bile,[4]; Abcc1^(−/−) mice,79 ± 1%
same,Percentage of S-(6-(7-[^11C]methylpurinyl))glutathione in brain,[4]; Abcc1^(−/−) mice,52 ± 0.4%
same,Percentage of S-(6-(7-[^11C]methylpurinyl))glutathione in kidney,[4]; Abcc1^(−/−) mice,63 ± 1%
same,Percentage of S-(6-(7-[^11C]methylpurinyl))glutathione in liver,[4]; Abcc1^(−/−) mice,32 ± 4%
same,Percentage of S-(6-(7-[^11C]methylpurinyl))glutathione in urine,[4]; Abcc1^(−/−) mice,63 ± 3^a %
same,Percentage of S-(6-(7-[^11C]methylpurinyl))glutathione in plasma,[4]; Abcc1^(−/−) mice,43 ± 2^a %
same,Percentage of S-(6-(7-[^11C]methylpurinyl))glutathione in bile,[4]; wild-type mice,81 ± 5%
same,Percentage of S-(6-(7-[^11C]methylpurinyl))glutathione in brain,[4]; wild-type mice,60 ± 8%
same,Percentage of S-(6-(7-[^11C]methylpurinyl))glutathione in kidney,[4]; wild-type mice,58 ± 2%
same,Percentage of S-(6-(7-[^11C]methylpurinyl))glutathione in liver,[4]; wild-type mice,37 ± 2%
same,Percentage of S-(6-(7-[^11C]methylpurinyl))glutathione in urine,[4]; wild-type mice,77 ± 4%
same,Percentage of S-(6-(7-[^11C]methylpurinyl))glutathione in plasma,[4]; wild-type mice,51 ± 2%
